Test results taken from US20020028790A1, “Use of agonists or antagonists of P2 purinoceptors for the prevention glutamate-evoked cytotoxicity” (priority 1995, published 2002).

Columns and labels:
[1] = tested on: cerebellar granule neurons; assay: Glutamate-evoked cytotoxicity in cerebellar granule primary cultures (cell survival by count of intact viable nuclei); assay type: cell-based; details: for cellular survival / abolition of the cytotoxic action of glutamate: 100 μM compound in the simultaneous presence of 100 μM glutamate (acute exposure); for total neuronal population protected from cell death: incubated for the next 20 hours
Text: Always according to the present invention, these compounds are used to prevent glutamate-evoked cytotoxicity in the nervous system's cells, particularly in CNS neurons. As a cellular model system for CNS neurons we have adopted postnatal rat cerebellar neurons. These cells, which are among the best characterized primary neuronal cultures, when isolated from postnatal rat cerebellum (Lasher R. S., and Zagon I. S., Brain Res. 41, 428-438, 1972), develop in vitro their mature phenotype as interneurons which use glutamate as a neurotransmitter and furthermore constitute an excellent model system for the study of glutamate-mediated cytotoxicity.
By exposing granule neurons to 100 μM glutamate for 15-30 min is obtained (after 15-20 hours) 80-100% of total cell death. […] The effects of basilen blue on cerebellar granule cell morphology reveal, despite the exposure to glutamate, which otherwise induces complete cell death, apparently healty-looking cell bodies that do bear a dense network of highly branching processes. Adhesion and neurites fasciculation are also preserved by basilen blue.
Basilen Blue prevents cytotoxicity induced by glutamate in cerebellar granule primary cultures: effects of dose-response and modality of addition. Replicate cerebellar granule cultures at 8 DIV were exposed for 25 min to 100 μM glutamate, in the simultaneous presence of different concentrations of basilen blue (FIG. 1). After 20 hours, the cultures were assessed for cultures were assessed for cell survival by direct count of intact viable nuclei. The asterisk represents the % of nuclei obtained after simultaneous addition to the cells of 100 μM glutamate and 100 μM caffeine. In FIG. 2, replicate cerebellar granule cultures at 8 DIV were exposed for 25 min to 100 μM glutamate. At different time after glutamate withdrawl, basilen blue (100 μM) was added to the medium until the cultures, 20 hours later, were assessed for cell survival by direct count of intact viable nuclei. The asterisk represents the % of nuclei obtained after simultaneous addition to the cells of 100 μM glutamate and 100 μM basilen blue. In FIG. 3, replicate cultures were pretreated in the presence of 100 μM basilen blue for different time, before the addition of 100 μM glutamate for 25 min (performed in the absence of basilen blue). After 20 hours the cultures were assessed for cell survival.
The asterisk represents the % of nuclei obtained after simultaneous addition to the cells of 100 μM glutamate and 100 μM basilen blue. Counts represent means±SEM (n=4) and 100% of cell survival represents 1.75−2×10^6 total cells.
METHODS. Approximately 20 hours after exposure of granule cells to glutamate, the culture medium was removed and replaced with 1 ml of a detergent-containing lysing solution (0.5% ethyl hexadecyl dimethyl—ammonium bromide, 0.28% acetic acid, 0.5% Triton X-100, 3 mM NaCl, 2 mM MgCl2, in PBS pH 7.4 diluted 1/10).
After 1-2 minutes, the cells were triturated a few times, providing a uniform uspension of single, intact viable nuclei. The latter were quantified by ounting in a hemacytometer. Broken or damaged nuclei were not included in the counts.
Culturing cerebellar granule cells in the presence of AMPPNP: modulation of glutamate-dependent cell death, Ca^++ uptake and aspartate release. Primary cerebellar granule cultures were prepared and starting at 1 DIV some of time were daily supplemented with 100 μM AMPPNP.(FIG. 6) At 8 DIV, after two washes, some of the cultures were incubated at 20° C. for 25 min with 100 μM glutamate. The following day, they were assessed for cell survival, as previously described.

[2] = tested on: membranes of granule neurons ([3H] ATP binding); assay: Binding of [3H] ATP to cerebellar granule cell membranes; design: species or system rat; details: 1 h at 4° C, read-out: IC50 for inhibition of binding of [3H] ATP to membranes
Experimental: (§1) Basilen blue inhibits binding of [^3H] ATP to membranes of granule neurons with an IC50 of about 10 μM, that corresponds to the IC50 that prevents glutamate-evoked cytotoxicity. Binding studies with [^3H]
Basilen Blue inhibits binding of ATP to cerebellar granule cell membranes, but to uptake of aspartate. Membranes were prepared from 8 DIV cerebellar granule ells and 20 μg of protein were incubated with [^3H] ATP (0.5 μCi/ml, final concentration […]) (FIG. 4), in the presence of different concentrations of basilen blue, for 1 h at 4° C. Specific binding is shown and counts represent means±SEM (n=3). The asterisk represents the binding performed in the presence of 100 μM caffeine. In FIG. 5, replicate cerebellar granule cultures at 8 DIV were washed wice and incubated for different times in Locke's solution with [^3H] […] After two washes, cells were dissolved in 0.1 M NaOH and counted for incorporated radioactivity by liquid scintillation counting. […] Protein concentrations were determined by the method of Bradford with ovine serum albumin as standard.
METHODS. […] ATP, the samples (1 ml) were vacuum-filtered through Whatman GF/B glass fiber filters and the filters were immediately washed (3×4 s) with 5 ml of 50 mM Tris-HCl (pH 7.4), air dried and assessed for specifically bound radioactivity by liquid scintillation counting.

[3] = tested on: intact cells (granule neurons, [3H] ATP binding); assay: Binding of [3H] ATP to intact cells; design: species or system rat
Experimental: as §1

[4] = tested on: cerebellar granule neurons; assay: Glutamate-induced release of [3H] aspartate from cerebellar granule cells; assay type: cell-based, rat
Text: Since D-[^3H] aspartate release has been often used as a measure of the functional state of cerebellar granule neurons cultured in vitro and depolarization- or glutamate-evoked aspartate release is a feature progressively aquired by these cells along with neuronal maturation, we decided to test this parameter to further study the biological effects and possible mechanisms used by basilen blue in the prevention of cell death. We find that basilen blue inhibits glutamate-induced release of [^3H] aspartate with an IC50 of about 10 μM. […] Also a cronic exposure of granule neurons for 8 days to 100 μM AMPPNP inhibits by 70-80% the glutamate-evoked release of [^3H] aspartate.
(§2) (FIG. 7) Replicate cerebellar granule cultures at 8 DIV were incubated for 1 min in Locke's solution in the presence of 45 Ca^++ (1 μCi/ml), with or without 100 μM glutamate, and were then assessed for Ca^++ influx. (FIG. 8) Replicate cerebellar granule cultures at 8 DIV were incubated for 5 min in Locke's solution, in the presence of [^3H] D-2,3 aspartic acid (1 μCi/ml, final concentration 40 nM) and were then assessed for aspartate release, in the presence or absence of 100 μM glutamate. Data are expressed as means±SEM (n=3).
(§3) Basilen Blue inhibits release of aspartate and uptake of Ca^++ induced by glutamate in cerebellar granule cells. (FIG. 9) Replicate cerebellar granule cultures at 8 DIV were incubated for 5 min in Locke's solution in the presence of [^3H] D-2,3 aspartic acid (1 μCi/ml, final concentration 40 nM). After two washes, the cultures were then incubated for 1 min in Locke's solution with or without 100 μM glutamate and in the presence of different concentrations of basilen blue. The buffer removed from the cultures during this release phase was collected into vials and counted for radioactivity. The asterisk represents the release of aspartate obtained in the simultaneous presence of 100 μM glutamate and 100 μM caffeine. Cells were dissolved in 0.1 M NaOH and protein concentrations were determined by the method of Bradford, with bovine serum albumin as standard. (FIG. 10) Replicate cerebellar granule cultures at 8 DIV were incubated for 1 min in Locke's solution in the presence of 45 Ca^++ (1 μCi/ml), with our without 100 μM glutamate, and in the simultaneous presence of different concentrations of basilen blue. After two washes with ice-cold 154 mM choline chloride, 2 mM EDTA, the cells were lysed in 0.1 M NaOH and aliquots were collected for measuring Ca^++ influx (by radioactive counting) and protein concentration. The asterisk represents the Ca^++ influx obtained in the simultaneous presence of 100 μM glutamate and 100 μM caffeine. Data are expressed as means±SEM (n=3).

[5] = tested on: cerebellar granule neurons; assay: Glutamate-evoked Ca2+ uptake in cerebellar granule cells; assay type: cell-based, rat
Experimental: Glutamate-dependent neurotoxicity is often accompanied also in cerebellar granule neurons with increase in intracellular Ca^2+ via a multistep process. […] Also this value is in accordance with the IC50 found for inhibition of ATP binding, cytotoxicity and aspartate release. The basilen blue-dependent inhibition occurs when Ca^2+ uptake is measured for short (1 min) or for longer times (3, 10, and 25 min). The cronic exposure of granule neurons for 8 days to 100 μM AMPPNP inhibits by 50-70% glutamate-evoked Ca^2+ influx, similarly to the inhibition of cytotoxicity and aspartate release.
as §2, §3

[6] = tested on: cerebellar granule neurons; assay: Uptake of [3H] aspartate by cerebellar granule cultures; assay type: cell-based, rat; details: same basilen blue treatments as for cytotoxicity
Experimental: The effects of basilen blue on protection from cytotoxicity are linear with time and depend on the modality of somministration of the compound. When basilen blue is added to the cells 10 min after glutamate, and then incubated with granule neurons for only 15 min, it protects from cell death 60-70% of the entire neuronal population; if somministered only for the last 5 min of treatment of the cells with glutamate, basilen blue sustains survival of 25-40% of total neurons. When instead it is added 1-2 min or 30 min or 2 hours after exposure of granule neurons to glutamate (and then incubated with the cells for the next 20 hours) basilen blue protects from cell death respectively 55-70%, 30% and 10% of the total neuronal population. When it is added before (not during or after) exposure of granule neurons to glutamate, basilen blue requires a pretreatment of at least 20-25 hours in order to prevent by 70-80% the cytotoxic action of glutamate. Inhibition of aspartate uptake is not obtained as a consequence of these same treatments.
Basilen Blue inhibits binding of ATP to cerebellar granule cell membranes, but to uptake of aspartate. […] After two washes, cells were dissolved in 0.1 M NaOH and counted for incorporated radioactivity by liquid scintillation counting. […] Protein concentrations were determined by the method of Bradford with ovine serum albumin as standard.

[7] = chronic exposure for 8 days to 100 μM

Compound: Basilen Blue E 3G
- cellular survival / abolition of the cytotoxic action of glutamate [1]: completely sustains cellular survival
- IC50 ([1]; 100 μM glutamate, compound present simultaneously, read-out: IC50 for prevention of glutamate-evoked cell death): 10 to 20 µM
- total neuronal population protected from cell death ([1]; added 1-2 min after exposure to glutamate): 55-70%
- neuronal population protected from cell death ([1]; added 10 min after glutamate, then incubated with neurons for only 15 min): 60-70%
- total neuronal population protected from cell death ([1]; added 30 min after exposure to glutamate): 30%
- total neuronal population protected from cell death ([1]; added 2 hours after exposure to glutamate): 10%
- adhesion and neurites fasciculation ([1]; despite exposure to glutamate, 100 μM basilen blue): preserved
- survival of total neurons ([1]; given only for the last 5 min of glutamate treatment): 25-40%
- acute response (rapid swelling of the cell body and loss of brightness) ([1]; within the first 5 min of treatment with glutamate, basilen blue added): prevented
- IC50 [2]: ~10 µM
- inhibition of [3H] ATP binding to intact cells [3]: as effective
- IC50 ([4]; 100 μM glutamate, read-out: IC50 for inhibition of glutamate-induced release of [3H] aspartate): ~10 µM
- extent of inhibition of glutamate-induced [3H] aspartate release ([4]; release measured for 1, 3, 10, 25 min or in presence of Mg2+): almost complete
- basal release of [3H] aspartate ([4]; without glutamate): does not affect
- IC50 ([5]; 100 μM glutamate, read-out: IC50 for inhibition of glutamate-evoked Ca2+ uptake): ~10 µM
- extent of inhibition of glutamate-evoked Ca2+ uptake ([5]; uptake measured for 1, 3, 10 and 25 min): almost completely abolishes
- basal Ca2+ uptake ([5]; without glutamate): not basal
- inhibition of aspartate uptake [6]: not obtained

Compound: Nc1c(S(=O)(=O)O)cc(Nc2ccc(Nc3nc(Cl)nc(Nc4ccccc4S(=O)(=O)O)n3)c(S(=O)(=O)O)c2)c2c1C(=O)c1ccccc1C2=O [cibacron blue, Cibacron Blue 3GA]
- prevention of glutamate-evoked cell death (in words) [1]: effective

Compound: Nc1ncnc2c1ncn2C1OC(COP(=O)(O)OP(=O)(O)NP(=O)(O)O)C(O)C1O (stereo not drawn) [AMPPNP, 5-adenylylimidodiphosphate]
- cellular survival / abolition of the cytotoxic action of glutamate [1]: not effective
- inhibition of glutamate-induced cytotoxicity ([1]; cells cultured in continuous presence of 100 μM compound from day 1 (not later than day 2) in vitro): 50-60%
- inhibition of glutamate-evoked release of [3H] aspartate [4, 7]: 70-80%
- inhibition of glutamate-evoked Ca2+ influx [5, 7]: 50-70%

Compound: Cn1c(=O)c2c(ncn2C)n(C)c1=O [Caffeine]
- abolition of the cytotoxic action of glutamate ([1]; up to 100 μM): does not abolish
